Assay results reported in patent publication US6420131B1, “Use of fluorescein aryl ethers in high throughput cytochrome P450 inhibition assays” (Gentest Corporation, priority 1999, dated 2002).

How the values were obtained:
Rat CYP2C12 = target: T1, Rat CYP2C12 (Rattus norvegicus, UniProt P11510); experiment: Turnover of fluorometric substrates by rat CYP2C12; conditions: substrate uM: Ia 2, AMMC 20, CEC 40, MFC 50, BFC 50, BQ 40, BzRes 50; 30 min; enzyme 50 nM
T1 sequence (P11510 1-490): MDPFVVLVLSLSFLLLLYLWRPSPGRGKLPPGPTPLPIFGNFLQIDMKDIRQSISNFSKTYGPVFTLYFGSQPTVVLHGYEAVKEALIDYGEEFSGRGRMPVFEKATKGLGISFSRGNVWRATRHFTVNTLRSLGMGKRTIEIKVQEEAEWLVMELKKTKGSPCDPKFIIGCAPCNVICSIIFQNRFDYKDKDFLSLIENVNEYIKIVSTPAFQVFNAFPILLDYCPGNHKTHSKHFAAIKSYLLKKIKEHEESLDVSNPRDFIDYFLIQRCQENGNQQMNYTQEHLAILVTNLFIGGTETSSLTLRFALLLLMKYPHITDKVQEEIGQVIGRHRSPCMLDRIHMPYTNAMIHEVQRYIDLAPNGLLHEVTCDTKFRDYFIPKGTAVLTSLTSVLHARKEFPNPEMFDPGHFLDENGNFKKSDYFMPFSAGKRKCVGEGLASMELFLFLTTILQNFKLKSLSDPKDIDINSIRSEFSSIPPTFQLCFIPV

human CYP3A4 = human CYP3A4 (Homo sapiens, UniProt P08684); experiment: Enzyme kinetics of substrate turnover by cDNA-expressed CYP3A4; assay type: biochemical; parameters: purchased GENTEST Corporation P202; host or cells: baculovirus/insect cells (microsomes, SUPERSOMES); conditions: for Vmax: CYP3A4
human CYP3A4, sequence (P08684 whole entry): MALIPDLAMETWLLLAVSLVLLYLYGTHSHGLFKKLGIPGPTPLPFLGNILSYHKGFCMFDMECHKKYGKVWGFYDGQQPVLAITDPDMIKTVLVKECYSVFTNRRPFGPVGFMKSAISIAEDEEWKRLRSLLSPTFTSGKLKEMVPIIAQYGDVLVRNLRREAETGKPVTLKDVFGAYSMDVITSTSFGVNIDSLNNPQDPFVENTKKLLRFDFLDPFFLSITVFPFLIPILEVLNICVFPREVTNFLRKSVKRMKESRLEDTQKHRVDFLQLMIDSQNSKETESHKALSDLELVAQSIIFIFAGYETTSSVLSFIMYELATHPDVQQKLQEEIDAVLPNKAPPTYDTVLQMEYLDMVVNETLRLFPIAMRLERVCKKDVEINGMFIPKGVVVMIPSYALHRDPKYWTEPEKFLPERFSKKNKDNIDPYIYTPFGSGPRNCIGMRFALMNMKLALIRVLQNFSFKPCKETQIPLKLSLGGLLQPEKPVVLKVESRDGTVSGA
Experimental: The evaluation of compounds of Formula I were performed by measuring the kinetics of turnover using cDNA-expressed cytochromes P450 CYP3A4 and CYP2C8. Vmax and Km values are important for the optimization of the assay conditions and for setting the parameters for inhibition experiments.
Example Compound Ia. […] Final incubation volume was 0.2 ml. […] The activity was quantitated by comparing to a standard curve of fluorescein. Apparent Km and Vmax values were calculated by non-linear regression using SigmaPlot software.

[1] = target: T2, panel of Human P450 enzymes (Homo sapiens, UniProt P04798); experiment: Substrate specificity, dealkylation of Compounds Ia and Ib by a panel of human P450 enzymes; assay type: biochemical; conditions: CYP1A1
T2 construct: purchased GENTEST Corporation; host or cells: baculovirus/insect cells (microsomes, SUPERSOMES)
T2 sequence (P04798 1-512): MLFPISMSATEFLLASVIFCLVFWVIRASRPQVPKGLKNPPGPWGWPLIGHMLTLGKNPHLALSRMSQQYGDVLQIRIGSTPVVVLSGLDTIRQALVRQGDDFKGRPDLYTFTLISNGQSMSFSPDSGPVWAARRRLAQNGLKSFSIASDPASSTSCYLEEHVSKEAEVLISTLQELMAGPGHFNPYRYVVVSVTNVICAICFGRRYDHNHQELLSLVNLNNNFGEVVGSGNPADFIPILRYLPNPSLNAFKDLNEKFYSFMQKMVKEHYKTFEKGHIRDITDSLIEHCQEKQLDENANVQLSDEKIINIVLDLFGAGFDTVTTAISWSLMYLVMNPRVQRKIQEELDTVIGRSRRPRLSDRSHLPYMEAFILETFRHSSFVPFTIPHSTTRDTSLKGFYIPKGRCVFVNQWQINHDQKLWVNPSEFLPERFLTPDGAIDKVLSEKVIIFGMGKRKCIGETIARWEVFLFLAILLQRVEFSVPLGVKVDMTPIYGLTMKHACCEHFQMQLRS
Experimental: (§1) The specificity of several cytochrome P450 enzymes for the dealkylation of Compound Ia (FIG. 1) and Compound Ib (FIG. 2) was examined.
(§2) Example Compounds Ia and Ib. […] Final incubation volume was 0.2 ml.

[2] = tested on: panel of Human P450 enzymes; experiment: as above; assay type: biochemical; conditions: CYP2C9*1, CYP2C19, members of the CYP3A family
Experimental: as §1, §2

[3] = target: T3, panel of Human P450 enzymes (Homo sapiens, UniProt P10632); experiment: as above; assay type: biochemical; conditions: CYP2C8
T3 construct: purchased GENTEST Corporation; host or cells: baculovirus/insect cells (microsomes, SUPERSOMES)
T3 sequence (P10632 1-490): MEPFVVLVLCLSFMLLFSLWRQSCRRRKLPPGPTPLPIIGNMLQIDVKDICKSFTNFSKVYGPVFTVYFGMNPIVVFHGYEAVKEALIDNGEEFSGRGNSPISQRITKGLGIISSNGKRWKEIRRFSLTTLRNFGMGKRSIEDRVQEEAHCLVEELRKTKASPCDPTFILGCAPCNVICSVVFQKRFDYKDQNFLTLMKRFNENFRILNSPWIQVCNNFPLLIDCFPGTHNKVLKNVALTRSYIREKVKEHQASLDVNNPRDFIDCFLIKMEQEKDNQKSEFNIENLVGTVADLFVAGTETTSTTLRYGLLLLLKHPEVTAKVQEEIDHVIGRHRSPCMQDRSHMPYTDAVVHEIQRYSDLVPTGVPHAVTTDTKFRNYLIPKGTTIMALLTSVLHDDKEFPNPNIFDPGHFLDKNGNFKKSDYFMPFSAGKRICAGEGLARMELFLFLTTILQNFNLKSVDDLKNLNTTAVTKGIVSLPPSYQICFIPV
Experimental: as §1, §2

Row | Compound | Turnover Numbers, CYP2C12 (Rat CYP2C12) | Vmax (human CYP3A4) | further results
1 | COc1ccc2c(C(F)(F)F)cc(=O)oc2c1 [MFC, 7-Methoxy-4-trifluoromethylcoumarin] | 0.24 pmol product/min/pmol enzyme |  | 
2 | O=C(OCc1ccccc1)c1ccccc1-c1c2ccc(=O)cc-2oc2cc(OCc3ccccc3)ccc12 [Compound Ia, O-Benzylfluorescein Benzyl Ester] |  | 22 ± 0.98 | dealkylation activity [1]: highest activity; dealkylation activity [2]: catalyzed the dealkylation; dealkylation activity [3]: substantial enzyme activity
3 | c1ccc(COc2ccc3cccnc3c2)cc1 [BQ, 7-Benzyloxyquinoline] | 1.5 pmol product/min/pmol enzyme |  | 
4 | O=c1ccc2nc3ccc(OCc4ccccc4)cc3oc-2c1 [BzRes, 7-benzyloxyresorufin] |  | 2.3 ± 0.2 | Km (human CYP3A4; CYP3A4, apparent Km): 30 ± 7 µM
